Here are results for four molecules from US9745360B2 (Sanofi, priority 2012, dated 2017).

pEC50: −log10 of the molar value. Like-named read-outs stand apart in the source and are kept apart here. *1 amine or outer side, *2 acyl side, *3 side chain or, on linkers, in order; H or OH if unused. Where a SMILES comes first, the peptide text is derived from it. Side-chain parts run from the residue outwards. [ ]: non-standard residue; d: D form. The star is where a group is joined. γGlu = O=C(O)[C@H](CCC(=O)[*:2])N[*:1]; Stearoyl = CCCCCCCCCCCCCCCCCC(=O)*; Palmitoyl = CCCCCCCCCCCCCCCC(=O)*; d(αMeK) = C[C@@](N)(CCCCN)C(=O)O; αMeOrn = C[C@](N)(CCCN)C(=O)O; αMeK = C[C@](N)(CCCCN)C(=O)O; Api = NC1(C(=O)O)CCNCC1; Aib = CC(C)(N)C(=O)O

Series [1] concerns the target T1, human GIP receptor (hGIP R) (Homo sapiens, UniProt P48546).
T1 construct: expressed in transfected cells
T1 sequence (P48546 22-466): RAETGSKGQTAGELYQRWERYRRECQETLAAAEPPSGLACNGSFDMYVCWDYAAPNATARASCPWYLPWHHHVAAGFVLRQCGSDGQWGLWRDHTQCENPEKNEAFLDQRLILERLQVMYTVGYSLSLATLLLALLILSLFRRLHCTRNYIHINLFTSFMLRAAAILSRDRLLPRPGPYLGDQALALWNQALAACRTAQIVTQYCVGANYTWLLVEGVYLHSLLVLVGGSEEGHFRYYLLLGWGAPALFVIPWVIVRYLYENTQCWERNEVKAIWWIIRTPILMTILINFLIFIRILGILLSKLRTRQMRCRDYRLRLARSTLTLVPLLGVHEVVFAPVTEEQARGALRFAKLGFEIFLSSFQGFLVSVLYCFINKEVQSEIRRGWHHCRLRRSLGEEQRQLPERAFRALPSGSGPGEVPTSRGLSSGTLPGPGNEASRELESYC
Briefly: cAMP response (HTRF) of HEK-293 cells stably expressing human GIP receptor. It is filed as cell-based. The note with it: Table 7; cAMP formation. The procedure: (§1) cAMP content of cells was determined using a kit from Cisbio Corp. (cat. no. 62AM4PEC) based on HTRF (Homogenous Time Resolved Fluorescence). For preparation, cells were split into T175 culture flasks and grown overnight to near confluency in medium (DMEM/10% FBS). Medium was then removed and cells washed with PBS lacking calcium and magnesium, followed by proteinase treatment with accutase (Sigma-Aldrich cat. no. A6964). Detached cells were washed and resuspended in assay buffer (1×HBSS; 20 mM HEPES, 0.1% BSA, 2 mM IBMX) and cellular density determined. They were then diluted to 400000 cells/ml and 25 μl-aliquots dispensed into the wells of 96-well plates. For measurement, 25 μl of test compound in assay buffer was added to the wells, followed by incubation for 30 minutes at room temperature.
(In general: Time-resolved FRET reads energy transfer from a long-lived donor to a nearby acceptor.)

Series [2] can be described thus: Chemical stability in solution, 7 days at 25° C., % remaining peptide. Format: physicochemical. The note with it: % remaining peptide after 7 days at 25° C. The procedure:
The chemical stability is expressed as “% remaining peptide”.
(§2) Solubility and chemical stability of peptidic compounds were assessed as described in Methods.

Series [3] in a line: Solubility testing in buffer, HPLC-UV of supernatant. It is filed as physicochemical. The note with it: target concentration 1.0 mg/mL. Here is the method: as §2
Series [4] concerns the target T2, human GLP-1 receptor (hGLP-1 R) (Homo sapiens, UniProt P43220).
T2 construct: expressed in transfected cells
Briefly: cAMP response (HTRF) of HEK-293 cells stably expressing human GLP-1 receptor. It is filed as cell-based. The note with it: Table 7; cAMP formation. Here is the method:
as §1

The term pEC50 denotes −log10 of the EC50, conventionally taken in molar units. Read a high pEC50 as a low EC50. The term solubility denotes the dissolved amount per volume that the medium holds.

T2 sequence (P43220 24-463): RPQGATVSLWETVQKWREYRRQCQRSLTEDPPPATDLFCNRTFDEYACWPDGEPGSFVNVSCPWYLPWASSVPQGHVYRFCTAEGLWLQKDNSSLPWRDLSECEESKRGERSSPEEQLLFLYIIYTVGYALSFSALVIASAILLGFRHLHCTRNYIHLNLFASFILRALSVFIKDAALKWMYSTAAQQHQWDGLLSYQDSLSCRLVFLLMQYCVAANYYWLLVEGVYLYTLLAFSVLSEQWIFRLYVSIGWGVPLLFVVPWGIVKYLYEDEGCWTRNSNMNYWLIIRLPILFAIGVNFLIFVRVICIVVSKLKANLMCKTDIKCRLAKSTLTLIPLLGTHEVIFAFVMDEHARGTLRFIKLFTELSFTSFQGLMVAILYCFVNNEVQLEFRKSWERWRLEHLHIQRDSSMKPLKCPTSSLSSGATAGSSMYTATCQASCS

For the molecule `CCCCCCCCCCCCCCCC(=O)N[C@@H](CCC(=O)NCCCC[C@H](NC(=O)[C@H](CCC(N)=O)NC(=O)[C@@H](NC(=O)[C@H](CO)NC(=O)[C@H](CC(C)C)NC(=O)[C@H](CC(=O)O)NC(=O)[C@H](CO)NC(=O)[C@@H](NC(=O)[C@H](Cc1ccccc1)NC(=O)[C@@H](NC(=O)CNC(=O)[C@H](CCC(=O)O)NC(=O)C(C)(C)NC(=O)[C@@H](N)Cc1ccc(O)cc1)[C@@H](C)O)[C@@H](C)O)[C@@H](C)CC)C(=O)N[C@@H](CCC(=O)O)C(=O)N[C@@H](CCC(=O)O)C(=O)N[C@@H](CCCNC(=N)N)C(=O)N[C@@H](C)C(=O)N[C@@H](C)C(=O)NC1(C(=O)N[C@@H](CCC(=O)O)C(=O)N[C@@H](Cc2ccccc2)C(=O)N[C@H](C(=O)N[C@@H](CCC(=O)O)C(=O)N[C@@H](Cc2c[nH]c3ccccc23)C(=O)N[C@@H](CC(C)C)C(=O)N[C@@H](CCCCN)C(=O)N[C@@H](CC(N)=O)C(=O)N[C@H](C(=O)NCC(=O)N2CCC[C@H]2C(=O)N[C@@H](CO)C(=O)N[C@@H](CO)C(=O)NCC(=O)N[C@@H](C)C(=O)N2CCC[C@H]2C(=O)N2CCC[C@H]2C(=O)N2CCC[C@H]2C(=O)N[C@@H](CO)C(N)=O)[C@@H](C)O)[C@@H](C)CC)CCNCC1)C(=O)O` [SEQ ID NO: 8, Y-Aib-E-G-T-F-T-S-D-L-S-I-Q-K(γE-x53)-E-E-R-A-A-Pip-E-F-I-E-W-L-K-N-T-G-P-S-S-G-A-P-P-P-S-NH2] (H-Y[Aib]EGTFTSDLSIQK([γGlu-Palmitoyl])EERAA[Api]EFIEWLKNTGPSSGAPPPS-NH2), in series [1], the pEC50 is 10.79. Also, in series [2] (pH 4.5), the “Stability (pH 4.5)” value was found to be 93.0%. For the same molecule, in series [2] (pH 7.4), the “Stability (pH 7.4)” value was 93.0%. The solubility was greater than 1000 µg/mL in series [3] (pH 4.5, read-out: Solubility (pH 4.5)) and greater than 1000 µg/mL in series [3] (pH 7.4, read-out: Solubility (pH 7.4)).
With `CCCCCCCCCCCCCCCC(=O)N[C@@H](CCC(=O)NCCCC[C@H](NC(=O)[C@H](CCC(N)=O)NC(=O)[C@@H](NC(=O)[C@H](CO)NC(=O)[C@H](CC(C)C)NC(=O)[C@H](CC(=O)O)NC(=O)[C@H](CO)NC(=O)[C@@H](NC(=O)[C@H](Cc1ccccc1)NC(=O)[C@@H](NC(=O)CNC(=O)[C@H](CCC(=O)O)NC(=O)C(C)(C)NC(=O)[C@@H](N)Cc1ccc(O)cc1)[C@@H](C)O)[C@@H](C)O)[C@@H](C)CC)C(=O)N[C@@H](CCC(=O)O)C(=O)N[C@@H](CCC(=O)O)C(=O)N[C@@H](CCCNC(=N)N)C(=O)N[C@@H](C)C(=O)N[C@@H](C)C(=O)N[C@@](C)(CCCN)C(=O)N[C@@H](CCC(=O)O)C(=O)N[C@@H](Cc1ccccc1)C(=O)N[C@H](C(=O)N[C@@H](CCC(=O)O)C(=O)N[C@@H](Cc1c[nH]c2ccccc12)C(=O)N[C@@H](CC(C)C)C(=O)N[C@@H](CCCCN)C(=O)N[C@@H](CC(N)=O)C(=O)N[C@H](C(=O)NCC(=O)N1CCC[C@H]1C(=O)N[C@@H](CO)C(=O)N[C@@H](CO)C(=O)NCC(=O)N[C@@H](C)C(=O)N1CCC[C@H]1C(=O)N1CCC[C@H]1C(=O)N1CCC[C@H]1C(=O)N[C@@H](CO)C(N)=O)[C@@H](C)O)[C@@H](C)CC)C(=O)O` [SEQ ID NO: 10, Y-Aib-E-G-T-F-T-S-D-L-S-I-Q-K(γE-x53)-E-E-R-A-A-(S)MeOrn-E-F-I-E-W-L-K-N-T-G-P-S-S-G-A-P-P-P-S-NH2] (H-Y[Aib]EGTFTSDLSIQK([γGlu-Palmitoyl])EERAA[αMeOrn]EFIEWLKNTGPSSGAPPPS-NH2), the pEC50 was 11.15 in series [1] and 11.31 in series [4].
In series [4], `CCCCCCCCCCCCCCCCCC(=O)N[C@@H](CCC(=O)NCCCC[C@H](NC(=O)[C@H](CCC(N)=O)NC(=O)[C@@H](NC(=O)[C@H](CO)NC(=O)[C@H](CC(C)C)NC(=O)[C@H](CC(=O)O)NC(=O)[C@H](CO)NC(=O)[C@@H](NC(=O)[C@H](Cc1ccccc1)NC(=O)[C@@H](NC(=O)CNC(=O)[C@H](CCC(N)=O)NC(=O)C(C)(C)NC(=O)[C@@H](N)Cc1ccc(O)cc1)[C@@H](C)O)[C@@H](C)O)[C@@H](C)CC)C(=O)N[C@@H](CC(=O)O)C(=O)N[C@@H](CCC(=O)O)C(=O)N[C@@H](CCC(N)=O)C(=O)N[C@@H](CCCNC(=N)N)C(=O)N[C@@H](C)C(=O)N[C@](C)(CCCCN)C(=O)N[C@@H](CCC(=O)O)C(=O)N[C@@H](Cc1ccccc1)C(=O)N[C@H](C(=O)N[C@@H](CCC(=O)O)C(=O)N[C@@H](Cc1c[nH]c2ccccc12)C(=O)N[C@@H](CC(C)C)C(=O)N[C@@H](CCCCN)C(=O)N[C@@H](CO)C(=O)NCC(=O)NCC(=O)N1CCC[C@H]1C(=O)N[C@@H](CO)C(=O)N[C@@H](CO)C(=O)NCC(=O)N[C@@H](C)C(=O)N1CCC[C@H]1C(=O)N1CCC[C@H]1C(=O)N1CCC[C@H]1C(=O)N[C@@H](CO)C(N)=O)[C@@H](C)CC)C(=O)O` [SEQ ID NO: 13, Y-Aib-Q-G-T-F-T-S-D-L-S-I-Q-K(γE-x70)-D-E-Q-R-A-(R)MeLys-E-F-I-E-W-L-K-S-G-G-P-S-S-G-A-P-P-P-S-NH2] (H-Y[Aib]QGTFTSDLSIQK([γGlu-Stearoyl])DEQRA[d(αMeK)]EFIEWLKSGGPSSGAPPPS-NH2) showed a pEC50 of 10.87.
On the same count and under the same terms, as for `CCCCCCCCCCCCCCCCCC(=O)N[C@@H](CCC(=O)NCCCC[C@H](NC(=O)[C@H](CCC(N)=O)NC(=O)[C@@H](NC(=O)[C@H](CO)NC(=O)[C@H](CC(C)C)NC(=O)[C@H](CC(=O)O)NC(=O)[C@H](CO)NC(=O)[C@@H](NC(=O)[C@H](Cc1ccccc1)NC(=O)[C@@H](NC(=O)CNC(=O)[C@H](CCC(=O)O)NC(=O)C(C)(C)NC(=O)[C@@H](N)Cc1ccc(O)cc1)[C@@H](C)O)[C@@H](C)O)[C@@H](C)CC)C(=O)N[C@@H](CC(=O)O)C(=O)N[C@@H](CCC(=O)O)C(=O)N[C@@H](CCCNC(=N)N)C(=O)N[C@@H](C)C(=O)N[C@@H](C)C(=O)N[C@@](C)(CCCCN)C(=O)N[C@@H](CCC(=O)O)C(=O)N[C@@H](Cc1ccccc1)C(=O)N[C@H](C(=O)N[C@@H](CCC(=O)O)C(=O)N[C@@H](Cc1c[nH]c2ccccc12)C(=O)N[C@@H](CC(C)C)C(=O)N[C@@H](CCCCN)C(=O)N[C@@H](CC(N)=O)C(=O)N[C@H](C(=O)NCC(=O)N1CCC[C@H]1C(=O)N[C@@H](CO)C(=O)N[C@@H](CO)C(=O)NCC(=O)N[C@@H](C)C(=O)N1CCC[C@H]1C(=O)N1CCC[C@H]1C(=O)N1CCC[C@H]1C(=O)N[C@@H](CO)C(N)=O)[C@@H](C)O)[C@@H](C)CC)C(=O)O` [SEQ ID NO: 14, Y-Aib-E-G-T-F-T-S-D-L-S-I-Q-K(γE-x70)-D-E-R-A-A-(S)MeLys-E-F-I-E-W-L-K-N-T-G-P-S-S-G-A-P-P-P-S-NH2] (H-Y[Aib]EGTFTSDLSIQK([γGlu-Stearoyl])DERAA[αMeK]EFIEWLKNTGPSSGAPPPS-NH2), the figure is 11.14.
